{"source": "patent US20040266755A1", "about": "“Prodrugs of 1-(1-hydroxy-5-isoquinolinesulfonyl) homopiperazine” (Schering Aktiengesellschaft, priority 2003, published 2004)", "origin": "cited, not measured here", "test_system": "Rho-kinase", "conditions": "compared with fasudil; Shimokawa et al. (1999) Cardiovas. Res. 43:1138-1141"}
{"smiles": "O=S(=O)(c1cccc2c(O)nccc12)N1CCCNCC1", "note": "[Hydroxyfasudil, 1-(1-hydroxy-5-isoquinolinesulfonyl) homopiperazine]", "values": [{"measurement": "specificity of inhibitory effect on Rho-kinase", "result": "more specific inhibitory effect on Rho-kinase than fasudil"}]}
